Reference: paper PMC3140774 (Journal of Medicinal Chemistry, 2011)

Columns and labels:
[1] = system: bloodstream form T. brucei (strain 427); assay: Trypanocidal assay, growth inhibition of cultured bloodstream-form T. brucei; type: cell-based, Trypanosoma brucei; conditions: for times higher activity than C-methyl analogue 7c / times higher activity than the parent 7a: free base form
[2] = system: T. cruzi epimastigotes (CL Brener clone); assay: Growth inhibition of T. cruzi epimastigotes; type: cell-based, Trypanosoma cruzi; conditions: free base
[3] = system: procyclic (insect form) T. brucei; assay: Activity against cultured procyclic; type: cell-based, Trypanosoma brucei
[4] = system: Bloodstream-form T. brucei; conditions: cited from earlier work

## O=C1CNC2(C(=O)N1)C1CC3CC(C1)CC2C3 (stereo not shown) [6a]
[1]; 5 μg mL^–1, bloodstream-form T. brucei
  inhibition of parasite growth, preliminary screen: inactive

## CN1CC(=O)N(CC(=O)NO)C(=O)C12C1CC3CC(C1)CC2C3 (stereo not shown) [7b]
[2]
  fold more potent against T. cruzi than 7a: 1.5 fold
[1]; bloodstream-form T. brucei
  fold lower potency of hydrochloride versus free base: 1.8 fold
[1]; free base, bloodstream form
  fold decrease in activity against T. brucei compared with 7a: 2.1 fold

## C[C@@H]1NC2(C(=O)N(CC(=O)NO)C1=O)C1CC3CC(C1)CC2C3 (stereo partly shown) [7c]
[1]; bloodstream-form T. brucei
  fold lower potency of hydrochloride versus free base: 3 fold
[1]; free base, bloodstream form
  fold decrease in activity against T. brucei compared with 7a: 1.5 fold

## O=C(CN1C(=O)[C@H](Cc2ccccc2)NC2(C1=O)C1CC3CC(C1)CC2C3)NO (stereo partly shown) [7d]
[2]
  fold more potent against T. cruzi than 7a: 26 fold
[1]; bloodstream-form T. brucei
  fold lower potency of hydrochloride versus free base: 6.2 fold
[1]; bloodstream form
  times higher activity than C-methyl analogue 7c: 8–20 fold
  times higher activity than the parent 7a: 5.3–13 fold
[1]; tested as hydrochloride salts
  factor less potent than 7e (R-enantiomer): 4.6 fold
  factor less potent than 8 (racemic mixture): 2.3 fold
[3]
  times more resistant: procyclic versus bloodstream-form T. brucei: 10–50 fold

## O=C(CN1C(=O)[C@@H](Cc2ccccc2)NC2(C1=O)C1CC3CC(C1)CC2C3)NO (stereo partly shown) [7e]
[1]; bloodstream form
  times higher activity than C-methyl analogue 7c: 8–20 fold
  times higher activity than the parent 7a: 5.3–13 fold
[3]
  times more resistant: procyclic versus bloodstream-form T. brucei: 10–50 fold

## O=C(CN1C(=O)CNC2(CCCCCCC2)C1=O)NO [9a]
[1]; free base, bloodstream form
  fold decrease in activity against T. brucei compared with 7a: 3.3 fold

## CN1CC(=O)N(CC(=O)NO)C(=O)C12CCCCCCC2 [9b]
[1]; free base, bloodstream form
  fold more potent against T. brucei than 9a: 1.9 fold

## C[C@@H]1NC2(CCCCCCC2)C(=O)N(CC(=O)NO)C1=O [9c]
[1]; free base, bloodstream form
  fold more potent against T. brucei than 9a: 2.4 fold

## O=C(CN1C(=O)[C@H](Cc2ccccc2)NC2(CCCCCCC2)C1=O)NO [9d]
[1]; free base, bloodstream form
  fold more potent against T. brucei than 9a: 10 fold
  times more trypanocidal activity than C-methyl counterpart 9c: 4.3 fold

## O=C(CN1C(=O)CNC2(CCCCCC2)C1=O)NO [10a]
[1]; free base, bloodstream form
  fold decrease in activity against T. brucei compared with 7a: 21 fold

## CN1CC(=O)N(CC(=O)NO)C(=O)C12CCCCCC2 [10b]
[1]; free base, bloodstream form
  times more potent against T. brucei than 10a: 6.6 fold

## O=C1ON=C2C3CC4CC(C3)CC12C4 [compound 3]
[4]; T. brucei in vitro
  potency fold greater than amantadine: at least 45 fold

## O=C(CN1C(=O)C(Cc2ccccc2)NC2(C1=O)C1CC3CC(C1)CC2C3)NO (stereo not shown) [compound 8]
[1]; bloodstream form
  times higher activity than C-methyl analogue 7c: 8–20 fold
  times higher activity than the parent 7a: 5.3–13 fold
[3]
  times more resistant: procyclic versus bloodstream-form T. brucei: 10–50 fold

## CC(N)C12CC3CC(CC(C3)C1)C2 (stereo not shown) [rimantadine]
[4]; read-out: IC50 bloodstream-form T. brucei, in vitro
  IC50: 7 µM
